Source: article PMC4335020, “Single Oral Dose Pharmacokinetics of Decursin and Decursinol Angelate in Healthy Adult Men and Women” (PLoS ONE, 2015)
Where two headings read alike, the source gives them in different places.

Assay: Single oral dose human plasma pharmacokinetics of D, DA and DOH after Cogni.Q
Assay type: in vivo
Excerpt: Ten healthy male and 10 female subjects were recruited by public announcement in Amarillo, TX, from January 2013 to April 2013 (see Fig. 1 CONSORT diagram). The sample size for each gender was chosen without power calculation due to the lack of prior knowledge of PK parameter variance in humans. After receiving informed consent verbally and in writing, the health status of each candidate was confirmed by health questionnaire, plasma biochemistry (hepatic and renal functions), complete blood cell count (CBC), and a physical examination by a participating academic physician. Subjects with diabetes, or pregnant, perinatal and breastfeeding women were excluded. For the 48 hours preceding study visit until the final blood draw, all subjects were instructed to avoid taking any prescription or nonprescription drugs, vitamins, and herbal/dietary supplements. Each subject was compensated for participating in the study per TTUHSC IRB approved rate.
Eligible subjects arrived at our clinical facility at 0700 (7:00 am) on the test day after a fast beginning at 2200 (10:00 pm) the previous night. After a brief review of vital signs, the nurse placed an intravenous (IV) line with saline drip in one arm of each subject. A baseline pre-dose (hour 0) blood sample was drawn through the IV line; after that subjects swallowed four Cogni.Q vegicaps with 240 mL of water at hour 0 under direct supervision. Subjects stayed at the clinical facility in their room for the next 12 hours, returning at 24 and 48 hours. Blood was drawn at baseline (hour 0) and at 0.5, 1, 2, 3, 4, 6, 8, 12, 24 and 48 hours after dosing into Vacutainer Blood Collection Tube (Becton-Dickinson, Franklin Lakes, NJ. Product Number: 367874, Sodium heparin was used as anti-coagulant). Water was allowed as desired except for within the first hour after Cogni.Q consumption. All subjects received standardized meals at post-dose hours 4.5 and 9.5 but no food was allowed for at least the first 4 hours post-dose.
Plasma was prepared by centrifuging the heparinized blood at 1000 g for 15 minutes at room temperature. Urine samples (40mL) were collected within time spans of 0–4, 4–8, 8–12 and 12–24 hours (total volume of urine was recorded). All plasma and urine samples were put on dry ice immediately and then stored at -80°C freezer until analysis.
Plasma samples were extracted with a validated solid supported liquid extraction (SLE) method facilitated with a positive pressure manifold (Biotage, Charlotte, NC). Briefly, 100 μL of plasma sample was spiked with 5 μL of 10 ng/μL prednisolone (IS), diluted with 200 μL of LC-MS grade water, mixed and loaded onto ISOLUTE SLE+ 400 μL Array Well cartridges (Biotage, Charlotte, NC). A pulse of minimum positive pressure was applied to facilitate the samples absorption into the cartridges. After the samples were allowed to absorb for 5 min, the compounds were eluted with 2×500 μL tert-butyl methyl ether. The eluent was dried in a Speedvac and the resulting residue was reconstituted in 50 μL of methanol for UHPLC-MS/MS analysis.
Eight-point calibration curves were constructed for D, DA and DOH, at concentrations of 0.1, 0.5, 1, 5, 10, 20, 50 and 100 μg/L for D and DA, and at concentrations of 1, 5, 10, 50, 100, 200, 500 and 1000 μg/L for DOH, respectively. The linear range was 0.1–100 μg/L (0.3–300 nmol/L), 0.1–100 μg/L (0.3–300 nmol/L) and 1–1000 μg/L (4–4000 nmol/L) for D, DA and DOH, respectively. The inter- and intra-assay CV were lower than 6.5% and the accuracy was between 90–105%. Calibration curve was run for each batch of samples analyzed. The mean calibration curve correlation coefficient (r) for D, DA and DOH was 0.999, 0.999 and 0.998, respectively (data from 7–10 calibration curves). In addition, 70% of the plasma samples were extracted and analyzed twice, the data from two replicate analyses were nearly identical and combined for final data analyses and presentation. […]

`CC1(C)Oc2cc3oc(=O)ccc3cc2C[C@@H]1O` [DOH, decursinol] gave a Cmax (both sexes, human, plasma, oral, 4 Cogni.Q vegicaps, n=20 (S1 Table), read-out: Cmax, nM, Grand Mean) of 2480 nM, a Tmax (both sexes, human, plasma, oral, 4 Cogni.Q vegicaps, n=20 (S1 Table), read-out: Tmax, h, Grand Mean) of 3.3 h and a half-life (both sexes, human, plasma, oral, all subjects, outliers excluded (S1 Table), read-out: Terminal t1/2, h, Grand Mean (converted)) of 7.4 h. For the same compound, the Cmax (both sexes, human, plasma, oral, human subjects, read-out: plasma C max, average value) was 2500 nM, the AUC(0-t) (both sexes, human, plasma, oral, n=20 (S1 Table), read-out: AUC0-48h, Grand Mean) was 27600 nmol·h/L and the Cmax (both sexes, human, plasma, oral, range over human subjects, read-out: plasma C max, range in human subjects) was 1300 to 4000 nM. The Cmax (both sexes, human, plasma, po, all human subjects n = 20, single oral dose 4 Cogni.Q vegicaps (119 mg D, 77 mg DA), plasma, read-out: Cmax, nmol/L Mean (SD)) was 2480 nM, the AUC(0-t) (both sexes, human, plasma, po, all human subjects n = 20, single oral dose Cogni.Q, plasma (Table 2), read-out: AUC0–48h, nmol/L, Mean (SD)) was 27600 nmol·h/L and the AUC(0-t) (both sexes, human, twenty healthy subjects, single oral dose Cogni.Q, plasma (abstract), read-out: mean area under the curve (AUC0-48h)) was 27600 nmol·h/L. It also gave a Tmax (both sexes, all human subjects n = 20, single oral dose 4 Cogni.Q vegicaps (119 mg D, 77 mg DA), plasma, read-out: Tmax, h, Mean (SD)) of 3.3 h, a half-life (both sexes, all human subjects, four outlier subjects excluded, single oral dose Cogni.Q, plasma, read-out: Terminal t1/2, h, Mean (SD) (converted)) of 7.4 h and an AUC(0-t) (female, human, plasma, oral, 4 Cogni.Q vegicaps, Women n=10 (S1 Table), read-out: AUC0-48h, Mean, F) of 32700 nmol·h/L. It also gave a Cmax (female, human, plasma, oral, 4 Cogni.Q vegicaps, Women n=10 (S1 Table), read-out: Cmax, nM, Mean, F) of 2610 nM, a Tmax (female, human, plasma, oral, Women n=10 (S1 Table), read-out: Tmax, h, Mean, F) of 4.1 h and a half-life (female, human, plasma, oral, Women, outliers excluded (S1 Table), read-out: Terminal t1/2, h, Mean, F (converted)) of 8.3 h. It also gave an AUC(0-t) (female, human, plasma, po, Women N = 10, single oral dose Cogni.Q, plasma, read-out: AUC0–48h, h.nmol/L Mean (SD)) of 32700 nmol·h/L, a Cmax (female, human, plasma, po, Women N = 10, single oral dose Cogni.Q, plasma, read-out: Cmax, nmol/L, Mean (SD)) of 2610 nM and a Tmax (female, human, plasma, po, Women N = 10, single oral dose Cogni.Q, plasma, read-out: Tmax, h, Mean (SD)) of 4.1 h. It also gave a half-life (female, human, plasma, po, Women, outlier subjects excluded, single oral dose Cogni.Q, plasma, read-out: T1/2, h, terminal Mean (SD) (converted)) of 8.3 h, a half-life (human, plasma, oral, 4 Cogni.Q vegicaps, subject S1 (115 lb), outlier, excluded from means, read-out: Terminal t1/2, h (converted)) of 9.9 h and an AUC(0-t) (human, plasma, oral, 4 Cogni.Q vegicaps, subject S1 (115 lb), read-out: AUC0-48h) of 17600 nmol·h/L. It also gave a Cmax (human, plasma, oral, 4 Cogni.Q vegicaps, subject S1 (115 lb), read-out: Cmax) of 2380 nM, a Tmax (human, plasma, oral, 4 Cogni.Q vegicaps, subject S1 (115 lb), read-out: Tmax) of 3 h and an AUC(0-t) (human, plasma, oral, 4 Cogni.Q vegicaps, subject S2 (194 lb), read-out: AUC0-48h) of 25000 nmol·h/L. It also gave a Cmax (human, plasma, oral, 4 Cogni.Q vegicaps, subject S2 (194 lb), read-out: Cmax) of 2390 nM, a half-life (human, plasma, oral, 4 Cogni.Q vegicaps, subject S2 (194 lb), read-out: Terminal t1/2, h (converted)) of 9.2 h and a Tmax (human, plasma, oral, 4 Cogni.Q vegicaps, subject S2 (194 lb), read-out: Tmax) of 4 h. It also gave a half-life (human, plasma, oral, 4 Cogni.Q vegicaps, subject S3 (170 lb), outlier, excluded from means, read-out: Terminal t1/2, h (converted)) of 5.2 h, an AUC(0-t) (human, plasma, oral, 4 Cogni.Q vegicaps, subject S3 (170 lb), read-out: AUC0-48h) of 8310 nmol·h/L and a Cmax (human, plasma, oral, 4 Cogni.Q vegicaps, subject S3 (170 lb), read-out: Cmax) of 1560 nM. The Tmax (human, plasma, oral, 4 Cogni.Q vegicaps, subject S3 (170 lb), read-out: Tmax) was 6 h, the AUC(0-t) (human, plasma, oral, 4 Cogni.Q vegicaps, subject S4 (170 lb), read-out: AUC0-48h) was 63700 nmol·h/L and the Cmax (human, plasma, oral, 4 Cogni.Q vegicaps, subject S4 (170 lb), read-out: Cmax) was 2680 nM. It also gave a half-life (human, plasma, oral, 4 Cogni.Q vegicaps, subject S4 (170 lb), read-out: Terminal t1/2, h (converted)) of 11.1 h, a Tmax (human, plasma, oral, 4 Cogni.Q vegicaps, subject S4 (170 lb), read-out: Tmax) of 6 h and an AUC(0-t) (human, plasma, oral, 4 Cogni.Q vegicaps, subject S5 (161 lb), read-out: AUC0-48h) of 19200 nmol·h/L. The Cmax (human, plasma, oral, 4 Cogni.Q vegicaps, subject S5 (161 lb), read-out: Cmax) was 1530 nM, the half-life (human, plasma, oral, 4 Cogni.Q vegicaps, subject S5 (161 lb), read-out: Terminal t1/2, h (converted)) was 7.7 h and the Tmax (human, plasma, oral, 4 Cogni.Q vegicaps, subject S5 (161 lb), read-out: Tmax) was 2 h. It also gave an AUC(0-t) (human, plasma, oral, 4 Cogni.Q vegicaps, subject S6 (120 lb), read-out: AUC0-48h) of 37500 nmol·h/L, a Cmax (human, plasma, oral, 4 Cogni.Q vegicaps, subject S6 (120 lb), read-out: Cmax) of 2770 nM and a half-life (human, plasma, oral, 4 Cogni.Q vegicaps, subject S6 (120 lb), read-out: Terminal t1/2, h (converted)) of 7.2 h. For the same compound, the Tmax (human, plasma, oral, 4 Cogni.Q vegicaps, subject S6 (120 lb), read-out: Tmax) was 4 h, the AUC(0-t) (human, plasma, oral, 4 Cogni.Q vegicaps, subject S7 (180 lb), read-out: AUC0-48h) was 51800 nmol·h/L and the Cmax (human, plasma, oral, 4 Cogni.Q vegicaps, subject S7 (180 lb), read-out: Cmax) was 3970 nM. The half-life (human, plasma, oral, 4 Cogni.Q vegicaps, subject S7 (180 lb), read-out: Terminal t1/2, h (converted)) was 6.5 h, the Tmax (human, plasma, oral, 4 Cogni.Q vegicaps, subject S7 (180 lb), read-out: Tmax) was 6 h and the AUC(0-t) (human, plasma, oral, 4 Cogni.Q vegicaps, subject S8 (160 lb), read-out: AUC0-48h) was 30400 nmol·h/L. The Cmax (human, plasma, oral, 4 Cogni.Q vegicaps, subject S8 (160 lb), read-out: Cmax) was 2530 nM, the half-life (human, plasma, oral, 4 Cogni.Q vegicaps, subject S8 (160 lb), read-out: Terminal t1/2, h (converted)) was 5.5 h and the Tmax (human, plasma, oral, 4 Cogni.Q vegicaps, subject S8 (160 lb), read-out: Tmax) was 3 h. The AUC(0-t) (human, plasma, oral, 4 Cogni.Q vegicaps, subject S9 (158 lb), read-out: AUC0-48h) was 17700 nmol·h/L and the Cmax (human, plasma, oral, 4 Cogni.Q vegicaps, subject S9 (158 lb), read-out: Cmax) was 2110 nM.
